Experimental data published in ChEMBL document CHEMBL1201862, “PubChem BioAssay data set” (2004).
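Values below derive from 48-hour exposures of cells grown in 96-well plates, with endpoints linearly interpolated between the two concentrations bracketing the appropriate inhibition level. Abbreviation: GI50, concentration required for 50% inhibition of growth.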 Activity calls are given as the source filed them. Cut-off read from the data, not from the text of the source: active = GI50 up to about 1.1 µM and inactive = higher. Non-standard residues stand in square brackets, D forms with d. Residues, ends and D or L forms follow the SMILES beside them.

How the values were obtained:
Test in all cases: DTP human tumour cell line panel, 48 h
[1] = test system: M19-MEL
[2] = test system: UACC-62
[3] = test system: LXFL 529
[4] = test system: DMS-273
[5] = test system: EKVX
[6] = test system: SW-620
[7] = test system: SNB-19
[8] = test system: COLO 205
[9] = test system: KM-20L2
[10] = test system: OVCAR-4
[11] = test system: OVCAR-3
[12] = test system: DLD-1
[13] = test system: HT-29
[14] = test system: SK-MEL-28
[15] = test system: HCC 2998
[16] = test system: NCI/ADR-RES

| Structure (SMILES) | GI50 [1] | GI50 [2] | GI50 [3] | GI50 [4] | GI50 [5] | GI50 [6] | GI50 [7] | GI50 [8] | GI50 [9] | GI50 [10] | GI50 [11] | GI50 [12] | GI50 [13] | GI50 [14] | GI50 [15] | GI50 [16] |
| --- | --- | --- | --- | --- | --- | --- | --- | --- | --- | --- | --- | --- | --- | --- | --- | --- |
| Cc1noc(/N=C2\C=C(Nc3onc(C)c3C)C(=O)c3ccccc32)c1C | 3.98 µM (inactive) | 27.7 µM (inactive) | 25.5 µM (inactive) | > 100 µM (inactive) | > 100 µM (inactive) | > 100 µM (inactive) | > 100 µM (inactive) | > 100 µM (inactive) | > 100 µM (inactive) | > 100 µM (inactive) | 2.88 µM (inactive) | 96.8 µM (inactive) | > 100 µM (inactive) | > 100 µM (inactive) | > 100 µM (inactive) | – |
| COC(=O)c1s/c(=N\C(=S)N(C)C)n(-c2ccc(Cl)cc2)c1C(=O)OC | > 100 µM (inactive) | > 10 µM (inactive) | – | > 100 µM (inactive) | > 100 µM (inactive) | > 100 µM (inactive) | > 100 µM (inactive) | > 100 µM (inactive) | > 100 µM (inactive) | 56.4 µM (inactive) | > 100 µM (inactive) | – | > 100 µM (inactive) | > 100 µM (inactive) | > 100 µM (inactive) | – |
| COc1ccc(/C=N/n2cnc3c(c2=O)S/C(=C2/SC(=S)N(c4ccc(C)cc4)C2=O)N3c2ccccc2)cc1 | > 100 µM (inactive) | 17.4 µM (inactive) | > 100 µM (inactive) | 38.9 µM (inactive) | > 100 µM (inactive) | > 100 µM (inactive) | 28.4 µM (inactive) | > 100 µM (inactive) | > 100 µM (inactive) | 17.7 µM (inactive) | 29.9 µM (inactive) | – | > 100 µM (inactive) | > 100 µM (inactive) | > 100 µM (inactive) | – |
| COc1cc([C@@H]2c3cc4c(cc3[C@@H](NC(=O)c3ccc(C(C)=O)cc3)C3COC(=O)[C@@H]32)OCO4)cc(OC)c1O (stereo partly specified) | 3.01 µM (inactive) | 0.206 µM (active) | 5.56 µM (inactive) | 0.0556 µM (active) | 1.89 µM (inactive) | 0.24 µM (active) | 0.29 µM (active) | 3.61 µM (inactive) | 0.724 µM (active) | 27.3 µM (inactive) | 2.38 µM (inactive) | 1.4 µM (inactive) | 1.5 µM (inactive) | 2.98 µM (inactive) | 1.41 µM (inactive) | – |
| CC(=O)OCC1OC(n2cc([N+](=O)[O-])c(=O)[nH]c2=O)C(OC(C)=O)C(OC(C)=O)C1OC(C)=O (stereo unspecified) | > 100 µM (inactive) | > 100 µM (inactive) | > 100 µM (inactive) | > 100 µM (inactive) | > 100 µM (inactive) | > 100 µM (inactive) | > 100 µM (inactive) | > 100 µM (inactive) | > 100 µM (inactive) | > 100 µM (inactive) | > 100 µM (inactive) | > 100 µM (inactive) | > 100 µM (inactive) | > 100 µM (inactive) | > 100 µM (inactive) | – |
| COc1ccc(OC(C(=O)O)C(C)C)c2c1CCCC2=O (stereo unspecified) | > 100 µM (inactive) | > 100 µM (inactive) | > 100 µM (inactive) | > 100 µM (inactive) | > 100 µM (inactive) | > 100 µM (inactive) | > 100 µM (inactive) | > 100 µM (inactive) | > 100 µM (inactive) | > 100 µM (inactive) | > 100 µM (inactive) | > 100 µM (inactive) | > 100 µM (inactive) | > 100 µM (inactive) | > 100 µM (inactive) | – |
| NC12CC3CC(C1)CC(Cl)(C3)C2 | > 100 µM (inactive) | > 100 µM (inactive) | > 100 µM (inactive) | > 100 µM (inactive) | > 100 µM (inactive) | > 100 µM (inactive) | – | > 100 µM (inactive) | > 100 µM (inactive) | – | > 100 µM (inactive) | > 100 µM (inactive) | > 100 µM (inactive) | > 100 µM (inactive) | > 100 µM (inactive) | – |
| CCOC(=O)NC1CC2CCC1(OC)C=C2C (stereo unspecified) | > 100 µM (inactive) | > 100 µM (inactive) | > 100 µM (inactive) | > 100 µM (inactive) | > 100 µM (inactive) | > 90.6 µM (inactive) | > 100 µM (inactive) | > 100 µM (inactive) | > 100 µM (inactive) | > 100 µM (inactive) | > 100 µM (inactive) | > 100 µM (inactive) | > 100 µM (inactive) | > 100 µM (inactive) | > 100 µM (inactive) | – |
| CCOc1ccc(NC(=O)CC2SC(N)=NC2=O)cc1 (stereo unspecified) | > 100 µM (inactive) | > 100 µM (inactive) | > 100 µM (inactive) | – | > 100 µM (inactive) | > 100 µM (inactive) | > 100 µM (inactive) | > 100 µM (inactive) | > 100 µM (inactive) | > 100 µM (inactive) | > 100 µM (inactive) | > 100 µM (inactive) | > 100 µM (inactive) | > 100 µM (inactive) | > 100 µM (inactive) | – |
| CC(C)=CCCC(C)[C@H]1CC(O)C2(C)C3=CCC4C(C)(C)[C@@H](O)CC[C@]4(C)C3=CC[C@]12C (stereo partly specified) | 4.51 µM (inactive) | 4.23 µM (inactive) | 1.95 µM (inactive) | 1.57 µM (inactive) | 26 µM (inactive) | 3.89 µM (inactive) | 12.1 µM (inactive) | 4.93 µM (inactive) | 6.58 µM (inactive) | 2.31 µM (inactive) | 3.2 µM (inactive) | 3.87 µM (inactive) | 2.72 µM (inactive) | – | – | – |
| O=C(CCC(=O)C1CCC/C1=N/O)Nc1ccc(Cl)cc1 (stereo unspecified) | > 100 µM (inactive) | > 100 µM (inactive) | > 100 µM (inactive) | > 100 µM (inactive) | > 100 µM (inactive) | > 100 µM (inactive) | > 100 µM (inactive) | > 100 µM (inactive) | > 100 µM (inactive) | > 100 µM (inactive) | > 100 µM (inactive) | > 100 µM (inactive) | > 100 µM (inactive) | > 100 µM (inactive) | > 100 µM (inactive) | – |
| CC1NC(=O)CC(c2ccccc2)N(N=O)C1c1ccccc1 (stereo unspecified) | 55.7 µM (inactive) | 35.4 µM (inactive) | – | 26 µM (inactive) | > 70.6 µM (inactive) | 20.6 µM (inactive) | 40 µM (inactive) | 26.6 µM (inactive) | 21.4 µM (inactive) | 19.9 µM (inactive) | 33.2 µM (inactive) | 44.8 µM (inactive) | 29.7 µM (inactive) | 40.8 µM (inactive) | 35.4 µM (inactive) | 25.2 µM (inactive) |
| CCOC(=O)C1=C(N)N(c2ccccc2)/C(=C(/C#N)c2nc3ccccc3[nH]2)S1 | > 100 µM (inactive) | > 100 µM (inactive) | > 100 µM (inactive) | > 100 µM (inactive) | > 100 µM (inactive) | > 100 µM (inactive) | > 100 µM (inactive) | > 100 µM (inactive) | > 100 µM (inactive) | > 100 µM (inactive) | > 100 µM (inactive) | > 100 µM (inactive) | > 100 µM (inactive) | > 100 µM (inactive) | – | – |
| CC(C)C[C@H](NC(=O)[C@H](CC(C)C)NC(=O)[C@@H](Cc1c[nH]c2ccccc12)NC(=O)[C@H](Cc1ccccc1)NC(=O)[C@@H](Cc1c[nH]c2ccccc12)NC(=O)[C@H](CCC(N)=O)NC(=O)[C@H](CCC(N)=O)NC(=O)[C@H]1CCCN1C(=O)[C@@H](N)CCCCN)C(N)=O (H-K[dP]QQ[dW]F[dW]LL-NH2) | > 100 µM (inactive) | > 100 µM (inactive) | – | > 100 µM (inactive) | > 100 µM (inactive) | > 100 µM (inactive) | > 100 µM (inactive) | > 100 µM (inactive) | > 100 µM (inactive) | > 100 µM (inactive) | > 100 µM (inactive) | > 100 µM (inactive) | > 100 µM (inactive) | > 100 µM (inactive) | > 100 µM (inactive) | > 100 µM (inactive) |
| CCNC(C)Cc1ccccc1 (stereo unspecified) | – | > 100 µM (inactive) | > 100 µM (inactive) | > 100 µM (inactive) | > 100 µM (inactive) | > 100 µM (inactive) | > 100 µM (inactive) | > 100 µM (inactive) | > 100 µM (inactive) | > 100 µM (inactive) | > 100 µM (inactive) | > 100 µM (inactive) | > 100 µM (inactive) | > 100 µM (inactive) | > 100 µM (inactive) | – |
| CN(C)CCNc1c2ccccc2c2c3c(cccc13)C(=O)N(CCN(C)C)C2=O | – | 0.308 µM (active) | – | 0.122 µM (active) | 0.332 µM (active) | 0.0532 µM (active) | 0.28 µM (active) | 0.0755 µM (active) | 0.103 µM (active) | 0.0455 µM (active) | 0.112 µM (active) | 0.0578 µM (active) | 0.029 µM (active) | 0.0735 µM (active) | 0.152 µM (active) | 0.0627 µM (active) |
| CC(C)(C)C1=CC(=N/N=c2\scc(-c3ccccc3)n2Cc2ccccc2)C=C(C(C)(C)C)C1=O | > 100 µM (inactive) | > 100 µM (inactive) | > 100 µM (inactive) | > 100 µM (inactive) | > 100 µM (inactive) | > 100 µM (inactive) | > 100 µM (inactive) | > 100 µM (inactive) | > 100 µM (inactive) | > 100 µM (inactive) | > 100 µM (inactive) | – | > 100 µM (inactive) | > 100 µM (inactive) | > 100 µM (inactive) | – |
| C[N+](C)(C)C.FC(F)(F)C1(C(F)(F)F)O[SiH-]2(OC(C(F)(F)F)(C(F)(F)F)c3ccccc32)c2ccccc21 | 18.2 µM (inactive) | – | 12.6 µM (inactive) | 20.1 µM (inactive) | 14.2 µM (inactive) | 18 µM (inactive) | 7.18 µM (inactive) | 20 µM (inactive) | 5.24 µM (inactive) | 6.47 µM (inactive) | 18.9 µM (inactive) | – | 11.2 µM (inactive) | 26.2 µM (inactive) | 19.2 µM (inactive) | – |
